# Test results from patent publication US20230263822A1, “MODULATION OF FACTOR 11 EXPRESSION” (Ionis Pharmaceuticals, Inc., priority 2008, published 2023).
# pIC50: −log10 of the molar value.
# What was measured:
# Factor 11 mRNA = Factor 11 mRNA in cynomolgus monkey liver, day 55 (Example 46); type: in vivo, cynomolgus monkeys; conditions: 25 mg/kg subcutaneously, primer probe set LTS00301
# Description: Groups, each consisting of two male and two female monkeys, were injected subcutaneously with 25 mg/kg of ISIS 416850, ISIS 449709, ISIS 445522, ISIS 449710, ISIS 449707, ISIS 449711, ISIS 449708, 416858, and ISIS 445531. Antisense oligonucleotide was administered to the monkeys at 25 mg/kg three times per week for week 1 and 25 mg/kg twice per week for weeks 2 to 8. A control group, consisting of two male and two female monkeys was injected subcutaneously with PBS according to the same dosing regimen. Body weights were taken 14 days and 7 days before the start of treatment and were then measured weekly throughout the treatment period. Blood samples were collected 14 days and 5 days before the start of treatment and subsequently several times during the dosing regimen for PT and aPTT measurements, and measurement of various hematologic factors. On day 55, the monkeys were euthanized by exsanguination while under deep anesthesia, and organs harvested for further analysis.
# On day 55, RNA was extracted from liver tissue for real-time PCR analysis of Factor 11 using primer probe set LTS00301. Results are presented as percent inhibition of Factor 11, relative to PBS control.
# [1] = Tolerability in Sprague-Dawley rats: body weight and organ weight (Example 35); type: in vivo; conditions: 50 mg/kg s.c. twice per week for 6 weeks; for Percent change: Body weight: percent change over the weights at the start of the study; for Percent change in organ weight: Kidney / Percent change in organ weight: Liver / Percent change in organ weight: Spleen: vs saline control, normalized to body weight
# Excerpt: Urine samples were taken before the start of treatment.
# The body weights are presented in Table 71 and are expressed as a percent change over the weights taken at the start of the study.
# human Factor 11 mRNA [2] = test: Dose-dependent inhibition of human Factor 11 in HepG2 cells, electroporation 625-20,000 nM (Example 5); type: cell-based; conditions: ~16 hours
# Description: The gapmers were also transfected via electroporation and their dose dependent inhibition of human Factor 11 mRNA was measured. Cells were plated at a density of 20,000 cells per well and transfected via electroporation with 625 nM, 1250 nM, 2500 nM, 5,000 nM, 10,000 nM, and 20,000 nM concentrations of antisense oligonucleotide, as specified in Table 12. After a treatment period of approximately 16 hours, RNA was isolated from the cells and human Factor 11 mRNA levels were measured by quantitative real-time PCR. Human Factor 11 primer probe set RTS 2966 was used to measure mRNA levels. Factor 11 mRNA levels were adjusted according to total RNA content, as measured by RIBOGREEN. Results are presented as percent inhibition of human Factor 11, relative to untreated control cells.
# [3] = set-up: species or system Sprague-Dawley rats; conditions: rat, in vivo
# Description: Three days after the last dose, the rats were sacrificed and livers and kidneys were collected for analysis.
# The concentration of the full-length oligonucleotide as well as the total oligonucleotide concentration (including the degraded form) was measured. The method used is a modification of previously published methods (Leeds et al., 1996; Geary et al., 1999) which consist of a phenol-chloroform (liquid-liquid) extraction followed by a solid phase extraction. An internal standard (ISIS 355868, a 27-mer 2′-O-methoxyethyl modified phosphorothioate oligonucleotide, […], designated herein as SEQ ID NO: 270) was added prior to extraction. […] The results are presented in Tables 77 and 78, expressed as μg/g liver or kidney tissue. Half-lives were then calculated using WinNonlin software ([…]).
# human Factor 11 mRNA [4] = test: Dose-dependent inhibition of human Factor 11 in HepG2 cells, electroporation 0.7-20 uM (Example 4); type: cell-based; conditions: for percent inhibition of Factor 11 at 0.7 μM / percent inhibition of Factor 11 at 2.2 μM / percent inhibition of Factor 11 at 6.7 μM / percent inhibition of Factor 11 at 20 μM: relative to untreated control cells
# How it was run: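 HepG2 cells electroporated with antisense gapmers at 0.7, 2.2, 6.7 and 20 μM, treated ~16 h. Factor 11 mRNA quantified by qRT-PCR (primer probe set RTS 2966), normalised to RIBOGREEN total RNA; expressed as percent inhibition versus untreated control cells.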
# [5] = set-up: species or system CD1 mice; conditions: mouse, in vivo
# Description: Five mice from each group were sacrificed 3 days, 28 days and 56 days following the final dose. Livers were harvested for analysis.
# The concentration of the full-length oligonucleotide as well as the total oligonucleotide concentration (including the degraded form) was measured. The method used is a modification of previously published methods (Leeds et al., 1996; Geary et al., 1999) which consist of a phenol-chloroform (liquid-liquid) extraction followed by a solid phase extraction. An internal standard (ISIS 355868, a 27-mer 2′-O-methoxyethyl modified phosphorothioate oligonucleotide, […], designated herein as SEQ ID NO: 270) was added prior to extraction. […] Half-lives were then calculated using WinNonlin software ([…]).
# The results are presented in Tables 68 and 69, expressed as μg/g liver tissue.
Substance,% inhibition of Factor 11 mRNA in liver relative to the PBS control (Factor 11 mRNA) [%],Percent change: Body weight [1] [%],Percent change in organ weight: Kidney [1],Percent change in organ weight: Liver [1],Percent change in organ weight: Spleen [1],percent inhibition of human Factor 11 mRNA relative to untreated control cells (human Factor 11 mRNA [2]; 625 nM) [%],percent inhibition of human Factor 11 mRNA relative to untreated control cells (human Factor 11 mRNA [2]; 1250 nM) [%],percent inhibition of human Factor 11 mRNA relative to untreated control cells (human Factor 11 mRNA [2]; 2500 nM) [%],percent inhibition of human Factor 11 mRNA relative to untreated control cells (human Factor 11 mRNA [2]; 5000 nM) [%],percent inhibition of human Factor 11 mRNA relative to untreated control cells (human Factor 11 mRNA [2]; 10000 nM) [%],percent inhibition of human Factor 11 mRNA relative to untreated control cells (human Factor 11 mRNA [2]; 20000 nM) [%],Half-life in the liver and kidney [3] [days],pIC50 (human Factor 11 mRNA [4]),percent inhibition of Factor 11 at 0.7 μM (human Factor 11 mRNA [4]) [%],percent inhibition of Factor 11 at 2.2 μM (human Factor 11 mRNA [4]) [%],percent inhibition of Factor 11 at 6.7 μM (human Factor 11 mRNA [4]) [%],percent inhibition of Factor 11 at 20 μM (human Factor 11 mRNA [4]) [%],Half-Life in the liver [5] [days]
"416850 (antisense TGCACAGTTTCTGGCAGGCC; 5-10-5 gapmer, further chemistry not given here) [compound 416850]",68,−33,+47%,+23%,+354%,69,80,87,90,93,96,18,5.47,14,25,81,91,18
"416858 (antisense ACGGCATTGGTGCACAGTTT; 5-10-5 gapmer, further chemistry not given here) [compound 416858]",89,−21,+5%,+8%,+187%,65,77,87,89,93,93,26,5.28,5,20,56,86,26
"416892 (antisense GCCCTTCATGTCTAGGTCCA; 3-14-3 chimeric gapmer, further chemistry not given here) [compound 416892]",,−39,+32%,+38%,+151%,66,86,96,97,100,100,12,5.60,14,52,82,92,12
"416925 (antisense GGTGCACAGTTTCTGGCAGG; 3-14-3 gapmer chemistry, further chemistry not given here) [compound 416925]",,−32,+48%,+44%,+371%,64,80,88,91,95,96,12,5.41,0,40,76,80,12
"416999 (antisense GCACAGTTTCTGGCAGGCCT; 2-13-5 gapmer chemistry, further chemistry not given here) [compound 416999]",,−37,+71%,+51%,+405%,61,82,89,94,94,97,9,5.55,20,42,77,88,9
"417002 (antisense GGTGCACAGTTTCTGGCAGG; 2-13-5 gapmer chemistry, further chemistry not given here) [compound 417002]",,−29,+63%,+27%,+446%,59,72,86,90,94,96,11,5.66,32,38,82,91,11
"417003 (antisense TGGTGCACAGTTTCTGGCAG; 2-13-5 gapmer chemistry, further chemistry not given here) [compound 417003]",,−40,+25%,+51%,+522%,60,74,86,90,95,95,10,5.41,0,34,75,89,10
